In PubChem BioAssay (NCI):
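Tested at 5 concentrations; 48 h exposure; 96-well plates; endpoints linearly interpolated, else capped at highest concentration. At the GI50, growth is halved. TGI is the concentration that stops growth completely.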

Experiments:
Assay in all cases: DTP human tumour cell line panel, 48 h
NCI-H460 lung = system: NCI-H460 lung
HCT-15 colon = system: HCT-15 colon
SNB-19 CNS = system: SNB-19 CNS
HOP-18 NSCLC = system: HOP-18 NSCLC
LOX IMVI melanoma = system: LOX IMVI melanoma
TK-10 renal = system: TK-10 renal
UACC-62 melanoma = system: UACC-62 melanoma
HCT-116 colon = system: HCT-116 colon
A549 NSCLC = system: A549 NSCLC
MALME-3M melanoma = system: MALME-3M melanoma

| SMILES | TGI (NCI-H460 lung) [µM] | TGI (HCT-15 colon) [µM] | TGI (SNB-19 CNS) [µM] | TGI (HOP-18 NSCLC) [µM] | TGI (LOX IMVI melanoma) [µM] | TGI (TK-10 renal) [µM] | TGI (UACC-62 melanoma) [µM] | GI50 (HCT-116 colon) [µM] | TGI (HCT-116 colon) [µM] | GI50 (A549 NSCLC) [µM] | TGI (A549 NSCLC) [µM] | GI50 (NCI-H460 lung) [µM] | GI50 (HCT-15 colon) [µM] | GI50 (SNB-19 CNS) [µM] | GI50 (LOX IMVI melanoma) [µM] | GI50 (MALME-3M melanoma) [µM] | TGI (MALME-3M melanoma) [µM] | GI50 (TK-10 renal) [µM] | GI50 (UACC-62 melanoma) [µM] |
| --- | --- | --- | --- | --- | --- | --- | --- | --- | --- | --- | --- | --- | --- | --- | --- | --- | --- | --- | --- |
| NC1C[C@H](n2cc(/C=C/Br)c(=O)[nH]c2=O)C[C@@H]1CO (stereo not given in full) | > 100 | > 100 | > 100 | > 100 | > 100 | > 100 | > 100 |  |  |  |  |  |  |  |  |  |  |  |  |
| CC[C@@H](C(=O)O)C1CC[C@H](C)C([C@@H](C)[C@H](O)[C@H](C)C(=O)[C@H](CC)C2O[C@]3(C=C[C@@H](O)[C@]4(CC[C@@](C)(C5CC[C@](O)(CC)[C@H](C)O5)O4)O3)[C@H](C)C[C@@H]2C)O1 (stereo not given in full) | 10.5 | 21.8 | 3.65 |  | 13.6 | 39.4 | 2.15 | 0.369 | 16.6 | 0.282 | 14.1 | 0.383 | 0.446 | 0.323 | 0.641 | 0.226 | 1.37 | 0.987 | 0.767 |
| COc1ccc(OC)c(/C=C2\SC(=S)NC2=O)c1 | > 100 | 93 | > 100 |  | > 100 | > 100 | 53.4 | 29.9 | > 100 | 26 | 89.9 | 32.6 | 26.2 | 79.8 | 26.6 | 34.6 | 92.8 | 28.8 | 17.7 |
| COc1ccc(-c2nc3sc4c(c3c(=O)[nH]2)CCCCCC4)cc1 | > 33.2 | > 33.2 | > 33.2 |  | > 33.2 | > 33.2 | > 33.2 | 1.39 | > 33.2 | 2.94 | > 33.2 | 2.26 | 0.655 | 4.74 | 3.12 | 3.72 | > 33.2 | > 33.2 | 0.908 |
| C[C@@H]1C[C@H]2CC[C@H](O2)[C@H](C)C(=O)O[C@@H](C)C[C@@H]2CC[C@@H](O2)[C@@H](C)C(=O)O[C@H](C)C[C@H]2CC[C@H](O2)[C@H](C)C(=O)O[C@@H](C)C[C@@H]2CC[C@@H](O2)[C@@H](C)C(=O)O1 | > 100 | > 100 | > 100 |  | 2.82 | > 48.5 | > 61.3 |  | > 100 |  | > 100 |  |  |  |  |  | 2.67 |  |  |
| COc1cc2c(c(OC)c1)C1c3ccccc3NC(=O)N1CC2 (stereo not given) | > 100 | > 100 | > 100 |  | > 100 | > 100 | > 100 | 3.69 | > 100 | 4.59 | > 100 | 3.7 | 3.14 | 7 | 5.58 | 10.4 | 67.8 | 8.98 | 3.08 |
| COc1ccc2sc3c(NCCCN(C)C)nc4ccccc4c3c(=O)c2c1 | 3.03 | 2.7 | 3.06 |  | 2.89 | 3.31 | 3.24 | 1.57 | 3.01 | 1.75 | 3.74 | 1.54 | 1.36 | 1.64 | 1.48 | 1.62 | 3.18 | 1.81 | 1.8 |
| CC#C[C@]1(O)CC[C@H]2[C@@H]3CCC4=CC(=O)CCC4=C3[C@@H](c3ccc4c(c3)OCO4)C[C@@]21C | 305 | 780 | > 1000 |  | 253 | 461 | 204 | 31.2 | 126 | 93.4 | 875 | 108 | 45.4 | 174 | 113 | 173 | 556 | 125 | 50 |
| COc1cccc2c1c(C(=O)C(=O)Nc1cc(C)no1)cn2Cc1ccc(F)cc1 | 46.9 | > 100 | > 100 |  | > 100 | > 100 | > 100 | 5.58 | > 64.1 | 23.8 | > 100 | 5.15 | 2.64 | 10.1 | 7.87 | 93.2 | > 100 | 15.3 | 3.29 |
| CC(CCC(=O)O)[C@H]1CCC2[C@@H]3CC[C@@H]4CC(O)CC[C@]4(C)C3CC[C@@]21C (stereo not given in full) | 97.4 | > 100 | > 100 |  | > 100 | > 100 | > 100 | 30.4 | > 100 | 25.3 | > 100 | 31 | 46.4 | 56.5 | 29.5 | > 100 | > 100 | 42.2 | 38.6 |
